Laboratory results: the NIST ThermoML archive (doi:10.1016/j.tca.2004.11.034)

What was measured:
[1] = xn = mol fraction of the nth substance listed; conditions: 101.33 kPa, Liquid; for speed of sound: Anton Paar DSA 48; for mass density: Vibrating tube method
[2] = excess molar enthalpy (molar enthalpy of mixing); xn = mol fraction of the nth substance listed; conditions: 298.15 K, 101.33 kPa, Liquid, Flow calorimetry
[3] = 101.33 kPa, Liquid; for speed of sound: Anton Paar DSA 48; for mass density: Vibrating tube method

CC1CCCO1 (stereo not given) [2-methyltetrahydrofuran] + CCCCCl
[1]
Conditions | mass density, 298.15 K [kg/m3] | mass density, 313.15 K [kg/m3] | speed of sound, 298.15 K [m/s] | speed of sound, 313.15 K [m/s]
x1 = 0.0507 | – | 862.5 | – | 1061
x1 = 0.0535 | 879.23 | – | 1123.2 | –
x1 = 0.0972 | 878.04 | – | 1126.8 | –
x1 = 0.1022 | – | 861.16 | – | 1065
x1 = 0.1958 | 875.19 | – | 1134.9 | –
x1 = 0.2014 | – | 858.46 | – | 1072.6
x1 = 0.2975 | 872.17 | – | 1143.3 | –
x1 = 0.3019 | – | 855.6 | – | 1080.3
x1 = 0.4006 | 869.04 | – | 1151.9 | –
x1 = 0.4047 | – | 852.6 | – | 1088.5
x1 = 0.5017 | – | 849.72 | – | 1096.2
x1 = 0.5031 | 865.88 | – | 1160.5 | –
x1 = 0.6017 | 862.77 | – | 1168.8 | –
x1 = 0.6026 | – | 846.65 | – | 1104.3
x1 = 0.6986 | 859.63 | – | 1177 | –
x1 = 0.7017 | – | 843.55 | – | 1112.3
x1 = 0.7994 | – | 840.43 | – | 1120.2
x1 = 0.8009 | 856.27 | – | 1185.6 | –
x1 = 0.9005 | 852.87 | – | 1194.1 | –
x1 = 0.9009 | – | 837.13 | – | 1128.3
x1 = 0.9487 | – | 835.54 | – | 1132.2
x1 = 0.9489 | 851.15 | – | 1198.2 | –

[2]
Conditions | excess molar enthalpy [kcal/mol]
x1 = 0.057 | -0.00669
x1 = 0.104 | -0.0139
x1 = 0.201 | -0.0277
x1 = 0.298 | -0.038
x1 = 0.398 | -0.0466
x1 = 0.497 | -0.0502
x1 = 0.597 | -0.0495
x1 = 0.696 | -0.0449
x1 = 0.799 | -0.0351
x1 = 0.901 | -0.0203
x1 = 0.954 | -0.0103

CC(C)(C)Cl [2-chloro-2-methylpropane] + CC1CCCO1
[1]
Conditions | mass density, 298.15 K [kg/m3] | mass density, 313.15 K [kg/m3] | speed of sound, 298.15 K [m/s] | speed of sound, 313.15 K [m/s]
x2 = 0.0505 | 837.22 | – | 993.8 | –
x2 = 0.0517 | – | 819.88 | – | 932.6
x2 = 0.0895 | – | 820.9 | – | 941.2
x2 = 0.108 | 838.65 | – | 1006.1 | –
x2 = 0.195 | – | 823.23 | – | 964
x2 = 0.2065 | 840.58 | – | 1027.5 | –
x2 = 0.3015 | – | 825.36 | – | 986.5
x2 = 0.3136 | 842.3 | – | 1050.9 | –
x2 = 0.3969 | – | 827.1 | – | 1006.8
x2 = 0.4125 | 843.81 | – | 1072.6 | –
x2 = 0.4986 | – | 828.77 | – | 1028.7
x2 = 0.5156 | 845.26 | – | 1095.2 | –
x2 = 0.605 | – | 830.31 | – | 1051.5
x2 = 0.6124 | 846.46 | – | 1116.5 | –
x2 = 0.6978 | – | 831.4 | – | 1071.1
x2 = 0.7107 | 847.59 | – | 1138.2 | –
x2 = 0.7998 | – | 832.45 | – | 1092
x2 = 0.8031 | 848.42 | – | 1158.7 | –
x2 = 0.8947 | – | 833.18 | – | 1111.7
x2 = 0.9022 | 848.98 | – | 1180.6 | –
x2 = 0.9476 | 849.12 | – | 1190.7 | –
x2 = 0.949 | – | 833.54 | – | 1123.7

[2]
Conditions | excess molar enthalpy [kcal/mol]
x2 = 0.057 | -0.00335
x2 = 0.104 | -0.00717
x2 = 0.201 | -0.0146
x2 = 0.298 | -0.0198
x2 = 0.398 | -0.0241
x2 = 0.497 | -0.0261
x2 = 0.597 | -0.0253
x2 = 0.696 | -0.0227
x2 = 0.799 | -0.0184
x2 = 0.901 | -0.0105
x2 = 0.954 | -0.0055

CC(C)(C)Cl [2-chloro-2-methylpropane]
[3]
Conditions | mass density [kg/m3] | speed of sound [m/s]
298.15 K | 835.67 | 983.1
313.15 K | 818.43 | –
333.15 K | – | 920.3

CCCCCl [1-chlorobutane]
[3]
Conditions | mass density [kg/m3] | speed of sound [m/s]
298.15 K | 880.69 | 1118.8
313.15 K | 863.86 | –
333.15 K | – | 1057.1

CC1CCCO1 (stereo not given) [2-methyltetrahydrofuran]
[3]
Conditions | mass density [kg/m3] | speed of sound [m/s]
298.15 K | 849.2 | 1202.6
313.15 K | 833.88 | –
333.15 K | – | 1136.2

CCC(C)Cl (stereo not given) [2-chlorobutane]
[3]
Conditions | mass density [kg/m3] | speed of sound [m/s]
298.15 K | 867.37 | 1066.8
313.15 K | 850.16 | –
333.15 K | – | 1006.9

CC(C)CCl [1-chloro-2-methylpropane] + CC1CCCO1
[1]
Conditions | mass density, 298.15 K [kg/m3] | mass density, 313.15 K [kg/m3] | speed of sound, 298.15 K [m/s] | speed of sound, 313.15 K [m/s]
x2 = 0.0515 | 870.05 | – | 1085.4 | –
x2 = 0.0553 | – | 852.78 | – | 1023
x2 = 0.1006 | 869.23 | – | 1091.3 | –
x2 = 0.1014 | – | 852.08 | – | 1028.6
x2 = 0.1992 | – | 850.48 | – | 1040.5
x2 = 0.2026 | 867.39 | – | 1103.8 | –
x2 = 0.3 | – | 848.74 | – | 1052.7
x2 = 0.3059 | 865.41 | – | 1116.6 | –
x2 = 0.4062 | 863.41 | – | 1129.1 | –
x2 = 0.4072 | – | 846.78 | – | 1065.7
x2 = 0.5015 | – | 844.98 | – | 1077
x2 = 0.505 | 861.34 | – | 1141.4 | –
x2 = 0.6022 | 859.23 | – | 1153.5 | –
x2 = 0.605 | – | 842.9 | – | 1089.3
x2 = 0.7022 | – | 840.83 | – | 1100.8
x2 = 0.7035 | 856.92 | – | 1166.1 | –
x2 = 0.8 | – | 838.61 | – | 1112.4
x2 = 0.8012 | 854.57 | – | 1178.2 | –
x2 = 0.8967 | – | 836.35 | – | 1123.8
x2 = 0.9099 | 851.75 | – | 1191.6 | –
x2 = 0.9491 | – | 835.09 | – | 1130
x2 = 0.9492 | 850.66 | – | 1196.4 | –

[2]
Conditions | excess molar enthalpy [kcal/mol]
x2 = 0.06 | -0.00789
x2 = 0.109 | -0.016
x2 = 0.21 | -0.0315
x2 = 0.309 | -0.0416
x2 = 0.411 | -0.0504
x2 = 0.511 | -0.0535
x2 = 0.609 | -0.0526
x2 = 0.707 | -0.0468
x2 = 0.806 | -0.0361
x2 = 0.904 | -0.0201
x2 = 0.954 | -0.0103

CC(C)CCl [1-chloro-2-methylpropane]
[3]
Conditions | mass density [kg/m3] | speed of sound [m/s]
298.15 K | 870.89 | 1079.2
313.15 K | 853.56 | –
333.15 K | – | 1016.3

CCC(C)Cl (stereo not given) [2-chlorobutane] + CC1CCCO1
[1]
Conditions | mass density, 298.15 K [kg/m3] | mass density, 313.15 K [kg/m3] | speed of sound, 298.15 K [m/s] | speed of sound, 313.15 K [m/s]
x2 = 0.049 | 866.71 | – | 1073.2 | –
x2 = 0.0565 | – | 849.52 | – | 1013.7
x2 = 0.1006 | 866.01 | – | 1080.1 | –
x2 = 0.101 | – | 848.97 | – | 1019.3
x2 = 0.201 | – | 847.69 | – | 1031.9
x2 = 0.2041 | 864.52 | – | 1093.8 | –
x2 = 0.3034 | 862.99 | – | 1107.1 | –
x2 = 0.3045 | – | 846.28 | – | 1045.1
x2 = 0.4039 | – | 844.81 | – | 1057.9
x2 = 0.4055 | 861.31 | – | 1120.8 | –
x2 = 0.5026 | 859.61 | – | 1134 | –
x2 = 0.5074 | – | 843.19 | – | 1071.3
x2 = 0.6005 | 857.81 | – | 1147.3 | –
x2 = 0.6044 | – | 841.58 | – | 1083.9
x2 = 0.6989 | 855.91 | – | 1160.9 | –
x2 = 0.7042 | – | 839.79 | – | 1097
x2 = 0.8022 | 853.81 | – | 1175.2 | –
x2 = 0.8034 | – | 837.9 | – | 1110
x2 = 0.8988 | – | 835.97 | – | 1122.6
x2 = 0.8991 | 851.69 | – | 1188.7 | –
x2 = 0.9456 | – | 835.03 | – | 1128.8
x2 = 0.9472 | 850.55 | – | 1195.3 | –

[2]
Conditions | excess molar enthalpy [kcal/mol]
x2 = 0.057 | -0.00454
x2 = 0.104 | -0.01
x2 = 0.201 | -0.0198
x2 = 0.298 | -0.0277
x2 = 0.398 | -0.033
x2 = 0.497 | -0.0356
x2 = 0.597 | -0.0359
x2 = 0.696 | -0.0323
x2 = 0.799 | -0.0251
x2 = 0.901 | -0.0141
x2 = 0.954 | -0.00717
